Patent US20180064702A1 (Teva Pharmaceutical Industries, Ltd., priority 2013, published 2018)

What was measured:
[1] = system: patients afflicted with a progressive form of multiple sclerosis (PPMS, SPMS, PRMS); test: Phase III clinical trial of oral laquinimod in progressive forms of multiple sclerosis (Example 1); assay type: in vivo, human; settings: daily oral 0.6 mg, 0.9 mg, 1.2 mg and 1.8 mg
Source text: 3-5 Years (2-4 years recruitment duration). Progressive Forms of Multiple Sclerosis, including Primary Progressive Multiple sclerosis (PPMS) and Secondary Progressive Multiple Sclerosis (SPMS). […] Matching placebo for laquinimod arm: matching placebo for laquinimod administered once daily. Approximately 140-240 sites and approximately 1300-2300 subjects. Inclusion Criteria • 1. Subjects must be 25-65 years old. • 2. Subjects must have a confirmed and documented diagnosis of Primary Progressive (according to McDonald), Progressive-Relapsing or Secondary Progressive (clinical definition, without relapses in the previous year) Multiple Sclerosis disease course. • 3. Subjects must be ambulatory with converted Kurtzke EDSS score of 3.0-6.5. • 4. Subjects must have a Pyramidal Functional Systems (FS) score of ≧2. • 5. Subjects must have a threshold Timed 25-Foot Walk ([…]) score. Exclusion Criteria • 1. Subjects with RRMS. • 2. Subjects with clinically significant or unstable medical or surgical condition that would preclude safe and complete study participation, as determined by medical history, physical examination, ECG, laboratory tests or chest X-ray. • 3. […] Confirmed disability progression at 3 and 6 months. This study assesses the efficacy of various daily doses of laquinimod as compared to placebo in multiple sclerosis subjects.

[2] = system: patients afflicted with PPMS; test: Phase II clinical trial of laquinimod in Primary Progressive Multiple Sclerosis subjects (Example 2); assay type: in vivo, human; settings: daily oral 0.6 mg, 1.0 mg and 1.5 mg
Procedure: Study Duration • Screening phase: Up to 1 month • Treatment Phase: At least 15 months
Subjects with Primary Progressive Multiple Sclerosis (approximately 500 subjects in approximately 120 centers, with about 125 subjects per study arm).
Investigational Product Route and Dosage Form • 1. […] Placebo arm: Three capsules containing placebo (0.5/0.6 mg matching) to be administered orally once daily.
Eligible subjects are randomized in a 1:1:1:1 ratio into one of the following treatment arms: • 1. […] Matching placebo
Subjects that stopped treatment with the study drug before the completion of Month 12 visit are considered Early Treatment Discontinuation (ETD) subjects. ETD subjects continue follow-up according to scheduled visits (until Month 12).
Subjects have the following study visits: Screening visit (−1 Month), Baseline visit (Month 0), and Months 1, 2, 3, 6, 9, 12, and every three months until study termination.
The following assessments are performed at the specified time points: • 1. Vital signs are measured at each study visit. • 2. A physical examination is performed at months −1, 0, 1, 3, 6 and every 6 months thereafter, ETD (if applicable), and until study completion. • 3. The following safety clinical laboratory tests are performed: • a. Complete blood count (CBC) with differential at all scheduled visits. • b. Serum chemistry (including electrolytes, liver enzymes, urea, creatinine, glucose, total protein, albumin, direct and total bilirubin, Creatinephosphokinase (CPK), serum conventional C-reactive protein (CRP), fibrinogen and pancreatic amylase)—at all scheduled visits. Calculated Glomerular Filtration Rate (GFR) at screening and prior to each MRI scan. • c. Lipid profile (total cholesterol, HDL, LDL, triglycerides)—at baseline (month 0) and every 12 months until completion/ETD. • d. Serum TSH, T3 and Free T4 at baseline (month 0), month 6 and every 12 months until completion/ETD. • e. Urinalysis at the screening visit. • f. Serum human choriogonadotropin beta (β-hCG) in women of child-bearing potential is performed at each scheduled study visit. • g. Urine β-hCG test is performed in women of child-bearing potential at baseline (month 0) and at each scheduled study visit thereafter. • h. Starting after visit Month 3 a β-hCG test is performed in women of child-bearing potential every 28 (±2) days. In case of suspected pregnancy the study drug is discontinued. • 4. Additional blood for analysis of serology for Hepatitis B and C viruses at baseline visit • 5. […] ECG is performed at months −1 (screening), 0 (baseline, three recordings 10 min apart, before first dose), 1, 2, 3, 6, 12 and every 12 months until completion/ETD. • 8. Chest X-ray is performed at month −1, (if not performed within 6 months prior to the screening visit). • 9. Adverse Events (AEs) are monitored throughout the study. • 10. Concomitant Medications are monitored throughout the study. • 11. All subjects—conventional MRI scans with gadolinium at Months 0 (14 to 7 days before Baseline), and 12. In case of ETD, or completion, an additional MRI is performed, provided no study MRI was done within the previous 3 months. • 12. In case of steroid treatment, study MRI is performed before such treatment or delayed to allow a minimum of 14 days but not more than 28 days from the completion of the steroid course. • 13. All subjects—MRI including 3D T1-w acquisitions of the brain and cervical cord, to measure whole brain volume, cord atrophy, thalamic atrophy, cortical atrophy and white matter (WM) atrophy at Months 0 (Baseline), 12 or ETD (if applicable). • 14. Neurological evaluations, including Expanded Disability Status Scale (EDSS), Timed 25-Foot Walk (T25FW)/9-Hole Peg test (9HPG), Ambulation Index (AI), Functional systems (FS), are performed at months −1, 0, and every 3 months thereafter, ETD visit (if applicable) and until completion visit. • 15. […]

[3] = system: patients having Relapsing-Remitting Multiple Sclerosis (RRMS); settings: cited from earlier work
[4] = system: genes related to antigen presentation and corresponding inflammatory pathways; settings: mainly via the NFkB pathway; cited from earlier work
[5] = in vivo; cited from earlier work

With CCN(C(=O)c1c(O)c2c(Cl)cccc2n(C)c1=O)c1ccccc1 [laquinimod] the “accumulation of physical disability” value ([1]; PPMS, vs placebo control group) was “reduces the accumulation of physical disability”, the “accumulation of physical disability” value ([1]; PPMS, vs the patient at baseline) was “reduces the accumulation of physical disability” and the “accumulation of physical disability” value ([1]; PRMS, vs placebo control group) was “reduces the accumulation of physical disability”. For the same compound, the “accumulation of physical disability” value ([1]; PRMS, vs the patient at baseline) was “reduces the accumulation of physical disability”, the “accumulation of physical disability” value ([1]; SPMS, vs placebo control group) was “reduces the accumulation of physical disability” and the “accumulation of physical disability” value ([1]; SPMS, vs the patient at baseline) was “reduces the accumulation of physical disability”. The “accumulation of physical disability” value ([1]; progressive form of multiple sclerosis, vs placebo control group) was “reduces the accumulation of physical disability”, the “accumulation of physical disability” value ([1]; progressive form of multiple sclerosis, vs the patient at baseline) was “reduces the accumulation of physical disability” and the “accumulation of physical disability” value ([2]; vs placebo control group) was “reduces the accumulation of physical disability”. For the same compound, the “brain atrophy (percentage change in brain volume from Baseline to month 12)” value ([2]; vs placebo control group) was “reduces brain atrophy”, the cognitive function ([2]; vs placebo control group) was “improves cognitive function” and the “cumulative number of new T2 lesions” value ([2]; vs placebo control group) was “reduces the cumulative number of new T2 lesions”. For the same compound, the “accumulation of physical disability” value ([2]; vs the patient at baseline) was “reduces the accumulation of physical disability”, the “brain atrophy (percentage change in brain volume from Baseline to month 12)” value ([2]; vs the patient at baseline) was “reduces brain atrophy” and the cognitive function ([2]; vs the patient at baseline) was “improves cognitive function”. The “cumulative number of new T2 lesions” value ([2]; vs the patient at baseline) was “reduces the cumulative number of new T2 lesions”, the “EDSS progression of disability” value ([3]; RRMS patients) was “consistently reduced EDSS progression of disability” and the brain atrophy ([3]; RRMS patients) was “reduced brain atrophy”. The “non-conventional MRI metrics” value ([3]; RRMS patients) was “increased non-conventional MRI metrics suggestive of preservation of tissue architecture”, the “safety and tolerability profile” value ([3]; two phase III trials, relapsing-remitting multiple sclerosis patients) was “favorable safety and tolerability profile” and the “suppression of genes related to antigen presentation” value [4] was “induced suppression of genes related to antigen presentation and corresponding inflammatory pathways”. For the same compound, the oral bioavailability [5] was “high”.
